Assay results: PubChem BioAssay AID194 (DTP/NCI, 2004)
Where “and” joins values, the source holds several entries; their conditions need not be identical. Equal entries are not always repeated. Results filed as inconclusive are left out.

Test system: BDF1 mice, B16 melanoma s.c., survival/tumor T/C
Assay: NCI In Vivo Anticancer Drug Screen. Data for tumor model B16 Melanoma (subcutaneous) in B6D2F1 (BDF1) mice
Conditions: endpoint: median survival time, higher = longer survival
Experimental: The antitumor activity of compounds was measured in mice bearing transplantable tumors. Survival or tumor size were measured and the results are expressed as the measurement made in the treated group (T) divided by the measurement made in the vehicle treated control group (C). The tumor model used in this assay is B16 Melanoma (subcutaneous) in B6D2F1 (BDF1) mice

[1] = dose: 12.0 mg/kg/injection, schedule: Q01DX009 (ip), vehicle: saline
[2] = dose: 18.0 mg/kg/injection, schedule: Q01DX009 (ip), vehicle: saline

Cc1c(N)nc(C(CC(N)=O)NCC(N)C(N)=O)nc1C(=O)NC(C(=O)NC(C)C(O)C(C)C(=O)NC(C(=O)NCCc1nc(-c2nc(C(=O)NCCCNC(C)c3ccccc3)cs2)cs1)C(C)O)C(OC1OC(CO)C(O)C(O)C1OC1OC(CO)C(O)C(OC(N)=O)C1O)c1cnc[nH]1 (stereo not given)
T/C (dose: 0.13 mg/kg/injection, schedule: Q01DX010 (ip), vehicle: water): 97 % of control
T/C (dose: 0.25 mg/kg/injection, schedule: Q01DX009 (ip), vehicle: water): 105 % of control and 120 % of control
T/C (dose: 0.25 mg/kg/injection, schedule: Q01DX010 (ip), vehicle: water): 97 % of control
T/C (dose: 0.5 mg/kg/injection, schedule: Q01DX009 (ip), vehicle: water): 100 % of control
T/C (dose: 0.5 mg/kg/injection, schedule: Q01DX010 (ip), vehicle: water): 124 % of control
T/C (dose: 1.0 mg/kg/injection, schedule: Q01DX009 (ip), vehicle: water): 184 % of control
T/C (dose: 1.0 mg/kg/injection, schedule: Q01DX010 (ip), vehicle: water): 112 % of control
T/C (dose: 2.0 mg/kg/injection, schedule: Q01DX010 (ip), vehicle: water): 112 % of control
T/C (dose: 4.0 mg/kg/injection, schedule: Q01DX010 (ip), vehicle: water): 98 % of control
T/C (dose: 8.0 mg/kg/injection, schedule: Q01DX009 (ip), vehicle: water): 106 % of control

OC(CBr)C(O)C(O)C(O)CBr (stereo not given)
T/C (dose: 20.0 mg/kg/injection, schedule: Q01DX009 (ip), vehicle: Klucel (hydroxypropylcellulose) (HPC)): 102 % of control
T/C (dose: 40.0 mg/kg/injection, schedule: Q01DX009 (ip), vehicle: Klucel (hydroxypropylcellulose) (HPC)): 106 % of control
T/C (dose: 125.0 mg/kg/injection, schedule: Q01DX009 (ip), vehicle: Klucel (hydroxypropylcellulose) (HPC)): 113 % of control
T/C (dose: 150.0 mg/kg/injection, schedule: Q01DX009 (ip), vehicle: Klucel (hydroxypropylcellulose) (HPC)): 106 % of control
T/C (dose: 250.0 mg/kg/injection, schedule: Q01DX009 (ip), vehicle: Klucel (hydroxypropylcellulose) (HPC)): 123 % of control

CC1(C)N=C(N)N=C(N)N1c1ccc(CCCCc2ccc(Cl)c(S(=O)(=O)F)c2)c(Cl)c1
T/C (dose: 8.0 mg/kg/injection, schedule: Q01DX009 (ip), vehicle: saline): 119 % of control
T/C [1]: 110 % of control
T/C [2]: 107 % of control
T/C (dose: 27.0 mg/kg/injection, schedule: Q01DX009 (ip), vehicle: saline): 94 % of control

CC1(C)N=C(N)N=C(N)N1c1ccc(CCCCc2cccc(S(=O)(=O)F)c2)c(Cl)c1
T/C [1]: 121 % of control
T/C [2]: 98 % of control

O=C(O)CCNSc1ccccc1[N+](=O)[O-]
T/C (dose: 12.5 mg/kg/injection, schedule: Q01DX009 (ip), vehicle: saline with Tween-80): 105 % of control
T/C (dose: 25.0 mg/kg/injection, schedule: Q01DX009 (ip), vehicle: saline with Tween-80): 109 % of control
T/C (dose: 50.0 mg/kg/injection, schedule: Q01DX009 (ip), vehicle: saline with Tween-80): 114 % of control
T/C (dose: 100.0 mg/kg/injection, schedule: Q01DX009 (ip), vehicle: saline with Tween-80): 100 % of control

CCC(c1ccc(OC(=O)Cc2ccc(N(CCCl)CCCl)cc2)cc1)C(CC)c1ccc(OC(=O)Cc2ccc(N(CCCl)CCCl)cc2)cc1 (stereo not given)
T/C (dose: 80.0 mg/kg/injection, schedule: Q01DX009 (ip), vehicle: saline with Tween-80): 102 % of control
T/C (dose: 120.0 mg/kg/injection, schedule: Q01DX009 (ip), vehicle: saline with Tween-80): 106 % of control
T/C (dose: 180.0 mg/kg/injection, schedule: Q01DX009 (ip), vehicle: saline with Tween-80): 93 % of control
T/C (dose: 270.0 mg/kg/injection, schedule: Q01DX009 (ip), vehicle: saline with Tween-80): 102 % of control
T/C (dose: 405.0 mg/kg/injection, schedule: Q01DX009 (ip), vehicle: saline with Tween-80): 90 % of control

CN(Cc1cnc2nc(N)nc(N)c2n1)c1c(Cl)cc(C(=O)NC(CCC(=O)O)C(=O)O)cc1Cl (stereo not given)
T/C (dose: 60.0 mg/kg/injection, schedule: Q01DX009 (ip), vehicle: sodium bicarbonate): 103 % of control
T/C (dose: 90.0 mg/kg/injection, schedule: Q01DX009 (ip), vehicle: sodium bicarbonate): 110 % of control
T/C (dose: 135.0 mg/kg/injection, schedule: Q01DX009 (ip), vehicle: sodium bicarbonate): 101 % of control
T/C (dose: 600.0 mg/kg/injection, schedule: Q04DX003 (ip), vehicle: sodium bicarbonate): 109 % of control
T/C (dose: 670.0 mg/kg/injection, schedule: Q01DX001 (ip), vehicle: sodium bicarbonate): 97 % of control
T/C (dose: 900.0 mg/kg/injection, schedule: Q04DX003 (ip), vehicle: sodium bicarbonate): 102 % of control
T/C (dose: 1000.0 mg/kg/injection, schedule: Q01DX001 (ip), vehicle: sodium bicarbonate): 102 % of control

O=C1NC2(CCCCC2)C(=O)N1CCN(CCCl)CCCl
T/C (dose: 1.5 mg/kg/injection, schedule: Q01DX009 (ip), vehicle: saline with Tween-80): 106 % of control
T/C (dose: 3.0 mg/kg/injection, schedule: Q01DX009 (ip), vehicle: saline with Tween-80): 96 % of control
T/C (dose: 6.0 mg/kg/injection, schedule: Q01DX009 (ip), vehicle: saline with Tween-80): 118 % of control

CC1(C)N=C(N)N=C(N)N1c1ccc(OCC(=O)Nc2ccc(S(=O)(=O)F)cc2)c(Cl)c1
T/C (dose: 50.0 mg/kg/injection, schedule: Q04DX003 (ip), vehicle: saline): 115 % of control
T/C (dose: 100.0 mg/kg/injection, schedule: Q04DX003 (ip), vehicle: saline): 113 % of control

COc1ccc(CCN2C(=O)CSC2=S)cc1OC
T/C (dose: 25.0 mg/kg/injection, schedule: Q01DX009 (ip), vehicle: Klucel (hydroxypropylcellulose) (HPC)): 120 % of control
T/C (dose: 50.0 mg/kg/injection, schedule: Q01DX009 (ip), vehicle: Klucel (hydroxypropylcellulose) (HPC)): 123 % of control
T/C (dose: 100.0 mg/kg/injection, schedule: Q01DX009 (ip), vehicle: Klucel (hydroxypropylcellulose) (HPC)): 116 % of control

Cc1c(N)nc(C(CC(N)=O)NCC(N)C(N)=O)nc1C(=O)NC(C(=O)NC(C)C(O)C(C)C(=O)NC(C(=O)NCCc1nc(-c2nc(C(=O)NCCCNCCCc3ccccn3)cs2)cs1)C(C)O)C(OC1OC(CO)C(O)C(O)C1OC1OC(CO)C(O)C(OC(N)=O)C1O)c1cnc[nH]1 (stereo not given)
T/C (dose: 0.1 mg/kg/injection, schedule: Q01DX010 (ip), vehicle: water): 101 % of control
T/C (dose: 0.2 mg/kg/injection, schedule: Q01DX010 (ip), vehicle: water): 116 % of control and 124 % of control
T/C (dose: 0.4 mg/kg/injection, schedule: Q01DX010 (ip), vehicle: water): 96 % of control and 124 % of control
T/C (dose: 1.6 mg/kg/injection, schedule: Q01DX010 (ip), vehicle: water): 117 % of control
T/C (dose: 3.2 mg/kg/injection, schedule: Q01DX010 (ip), vehicle: water): 88 % of control
